“Also recorded” adds a separate entry of the source. Blank lines part the entries; values can stand above or below the compound they belong to.
Assays:
[1] = Glutathione binding assay; format: physicochemical; details: 5 mM glutathione, 10 μM inhibitor, potassium phosphate buffer, room temperature, HPLC
Method: A calculated value (e.g (1/Btk IC50)/Glutathione conjugation rate) as shown in the Table 2) is used to compare compounds for their ratio between potency at inhibiting their target and their non-specific binding to other SH groups, such as those in glutathione. […] Calculated ratios such as these are used to quantitatively compare different compounds and select compounds for further study.
For the glutathione binding assays, 5 mM glutathione, 10 μM Btk inhibitor in DMSO (10 μL) and 6 equivalents of N′N′ Diisopropyl ethyl amine were combined in 1 mL potassium phosphate buffer. The mixture was incubated for 0, 15, 60 minutes at room temperature and the reaction was stopped with 10 equivalents of formic acid. 50 μL of each reaction mixture was injected on HPLC (Mobil Phase A: 0.2% formic acid in water, Mobile Phase B: 0.2% formic acid in acetonitrile, HPLC Column: Metasil Basic 3μ, 150×4.6 mm, 10% B, Gradient: 10% to 90% B, Detection: UV/Vis […]). Rate of reaction was reported as nmole GSH conjugate conversion per minute from the normalized ratio for area under the curve from HPLC chromatograms for both GSH conjugate and the parent.

Ramos cells = assay: Cell proliferation, Ramos cell line; format: cell-based
Method: (§1) After 72 hours, cell number was measured using Alamar Blue using manufacturer's protocol. A dilution series of untreated cells was run in parallel to verify that the Alamar Blue assay reliably reflected cell number and that growth conditions were not limiting. […] GI50 values were confirmed in two or more separate experiments for each cell line.
(§2) To identify biomarkers that correlate with response to Compound 1, phosphorylation events in the BCR signal transduction pathway were investigated.

[2] = system: Btk expressing B cell lymphoma cell lines; assay: Panel of nine Btk expressing B cell lymphoma cell lines, sensitivity vs basal pERK; format: cell-based
Method: as §1
A panel of nine Btk expressing B cell lymphoma cell lines was screened for basal pERK levels.

DOHH2 xenograft = assay: DOHH2 lymphoma xenograft model; format: in vivo; details: DOHH2 xenograft in SCID mice, dosed orally
DLCL2 xenograft = assay: DLCL2 lymphoma xenograft model; format: in vivo; details: DLCL2 xenograft in SCID mice, dosed orally
[3] = system: collagen-induced arthritis (paw inflammation); assay: Collagen-induced arthritis in the mouse; format: in vivo, male DBA/1OlaHsd mice
Method: […]. Compound for vehicle was dosed orally once per day starting at day 1. Dexamethasone was included as a positive control. Paw inflammation was scored from 0-5 and averaged across all paws from all animals for each group in the study.
. After paw inflammation was established, animals were randomized and Compound for vehicle was dosed orally once per day starting at day 1. Paw inflammation was scored from 0-5 and averaged across all paws from all animals for each group in the study. […] Dexamethasone was included as a positive control.

[4] = system: MRL/lpr model of lupus (proteinuria); assay: Mouse MRL/lpr model of lupus; format: in vivo, MRL/lpr mice
Source text: FIG. 3 presents an illustrative line graph showing inhibition of disease progression in a mouse MRL/lpr model of lupus.

mast cell degranulation = assay: Mouse passive cutaneous anaphylaxis model; format: in vivo, mice; details: single oral dose, increasing doses, 1 hour before DNP-BSA challenge
Method: FIG. 4 presents an illustrative bar graph showing inhibition of mast cell degranulation in a mouse passive cutaneous anaphylaxis model. […] After one hour, animals were challenged with an intravenous injection of DNP-BSA and Evans Blue dye and the area of extravasation was measured.
Mice were sensitized with an intradermal injection of monoclonal anti-DNP-IgE in the back. […] After one hour, animals were challenged with an intravenous injection of DNP-BSA and Evans Blue dye. Mast cell degranulation leads to vascular permeability and the distribution of the dye into the skin of the back. The area of extravasation after 1 hour is measured.

[5] = Plasma concentrations after oral dosing of rats; format: in vivo, male jugular vein cannulated rats; details: rat plasma, single 8 mg/kg dose by oral gavage, dosed in combination
Method: Blood samples were collected at 0.0833 (5 minutes), 0.333 (20 minutes), 1, 3, 6, 9, and 24 hours post-dosing from orally dosed rats.
Male jugular vein cannulated rats were administered a single dose of all test compounds at 8 mg/kg each, in combination by oral gavage. Dose volumes were adjusted based on body weight data collected immediately prior to dosing. Blood samples were collected at 0.0833 (5 minutes), 0.333 (20 minutes), 1, 3, 6, 9, and 24 hours post-dosing from orally dosed rats. The samples were collected into plasma separator Microtainer tubes with anticoagulant (lithium heparin). Plasma samples were prepared by centrifugation (5 min at 5000×g), and at least 100 μL were transferred to storage tubes and stored frozen at −80° C. Plasma samples were thawed and 75 uL aliquots were transferred to centrifuge tubes to which 10 μL aliquots of internal standard solution (1 μg/mL) were added. The samples were not diluted with blank plasma prior to further processing. Soluble proteins were precipitated by the addition of 200 μL of acetonitrile, followed by centrifugation (20 min at 16,000×g). The samples were evaporated to dryness and reconstituted in 200 μL of water containing 0.2% formic acid and 10% methanol. All samples were loaded onto an autosampler maintained at 6° C. and evaluated for concentrations of test compounds using LC-MS/MS.

normal human B cells = assay: B cell activation after brief exposure and washout (CD69); format: cell-based; details: 1 hour exposure, washed three times, then IgM F(ab')2 stimulation for 18 hours
Method: (§3) B cells were purified from blood from healthy donors by negative selecting using the RosetteSep Human B cell enrichment cocktail. […] After incubation for 1 hour at 37° C., cells were washed three times using an 8-fold dilution in growth media for each wash. Cells were then stimulated with IgM F(ab′)2 for 18 hours at 37° C., stained with anti-CD69-PE antibody and analyzed by flow cytometry.
as §3, with “stimulated with 10 ug/ml of IgM F(ab′)2” for “stimulated with IgM F(ab′)2”, “at 37° C. Cells were then stained with” for “at 37° C., stained with”, “by flow cytometry using standard conditions.” for “by flow cytometry.”

[6] = system: pERK / BCR signal transduction pathway in DOHH2 cells; assay: BCR pathway phosphorylation (phospho-specific antibodies) in DOHH2; format: cell-based
Source text: as §2
(§4) However, when we examined basal phosphorylation levels, we found higher basal phosphorylation in DOHH2 compared to Ramos, with phospho-ERK in particular indicating higher levels of basal or tonic signaling in DOHH2.

[7] = system: pERK / BCR signal transduction pathway in Ramos cells; assay: BCR pathway phosphorylation (phospho-specific antibodies) in Ramos; format: cell-based
Source text: as §2, §4

lymphoma cell lines = assay: In vitro cell proliferation, variety of lymphoma cell lines; format: cell-based; details: 72 hours
Method: as §1

[8] = target: panel of greater than 100 kinases (Tec family kinases including Btk, Src family kinases); assay: In vitro profiling against a panel of greater than 100 kinases; format: biochemical
Source text: By way of example only and in some embodiments, the observed potency, selectivity, and cell permeability of compounds such as Compound 2 are appropriate to incorporate these molecules into a Kinase-targeted, activity based probe that allows direct visualization of Kinase activity in intact cells. […] Without limiting the scope of the compositions and methods described herein, it is postulated that the structural basis for the selectivity is covalent modification of a non-catalytic cysteine residue (Cys 481 in Btk) that is conserved in the ATP binding pocket of the Tec family and several other kinases.

BTK = BTK (Homo sapiens (Human), UniProt Q06187); assay: HotSpot kinase assay, BTK; format: biochemical; details: purified enzyme, 33P-ATP, 1 uM ATP
Sequence of BTK (Q06187 whole entry): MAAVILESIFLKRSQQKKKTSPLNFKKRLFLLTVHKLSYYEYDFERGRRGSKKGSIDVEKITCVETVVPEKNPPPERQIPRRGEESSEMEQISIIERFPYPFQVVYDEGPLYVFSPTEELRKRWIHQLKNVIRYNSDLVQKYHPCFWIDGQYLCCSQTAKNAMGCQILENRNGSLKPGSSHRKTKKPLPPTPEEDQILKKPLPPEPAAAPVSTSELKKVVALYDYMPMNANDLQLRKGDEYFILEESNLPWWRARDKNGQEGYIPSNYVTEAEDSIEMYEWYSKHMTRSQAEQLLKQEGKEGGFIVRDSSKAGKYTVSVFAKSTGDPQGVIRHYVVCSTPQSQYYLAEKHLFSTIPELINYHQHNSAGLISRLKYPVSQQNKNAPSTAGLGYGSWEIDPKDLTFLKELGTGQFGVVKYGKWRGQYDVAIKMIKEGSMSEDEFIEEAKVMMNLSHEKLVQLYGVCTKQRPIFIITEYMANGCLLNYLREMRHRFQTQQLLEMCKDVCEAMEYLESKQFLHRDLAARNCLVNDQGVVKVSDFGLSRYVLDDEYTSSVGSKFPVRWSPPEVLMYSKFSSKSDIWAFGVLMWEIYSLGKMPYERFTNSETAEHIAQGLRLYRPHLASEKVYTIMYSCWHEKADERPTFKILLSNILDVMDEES

EGFR = EGFR (Homo sapiens (Human), UniProt P00533); assay: HotSpot kinase assay, EGFR; format: biochemical; details: purified enzyme, 33P-ATP, 1 uM ATP; printed EFGR in Table 1
Sequence of EGFR (P00533 25-1210): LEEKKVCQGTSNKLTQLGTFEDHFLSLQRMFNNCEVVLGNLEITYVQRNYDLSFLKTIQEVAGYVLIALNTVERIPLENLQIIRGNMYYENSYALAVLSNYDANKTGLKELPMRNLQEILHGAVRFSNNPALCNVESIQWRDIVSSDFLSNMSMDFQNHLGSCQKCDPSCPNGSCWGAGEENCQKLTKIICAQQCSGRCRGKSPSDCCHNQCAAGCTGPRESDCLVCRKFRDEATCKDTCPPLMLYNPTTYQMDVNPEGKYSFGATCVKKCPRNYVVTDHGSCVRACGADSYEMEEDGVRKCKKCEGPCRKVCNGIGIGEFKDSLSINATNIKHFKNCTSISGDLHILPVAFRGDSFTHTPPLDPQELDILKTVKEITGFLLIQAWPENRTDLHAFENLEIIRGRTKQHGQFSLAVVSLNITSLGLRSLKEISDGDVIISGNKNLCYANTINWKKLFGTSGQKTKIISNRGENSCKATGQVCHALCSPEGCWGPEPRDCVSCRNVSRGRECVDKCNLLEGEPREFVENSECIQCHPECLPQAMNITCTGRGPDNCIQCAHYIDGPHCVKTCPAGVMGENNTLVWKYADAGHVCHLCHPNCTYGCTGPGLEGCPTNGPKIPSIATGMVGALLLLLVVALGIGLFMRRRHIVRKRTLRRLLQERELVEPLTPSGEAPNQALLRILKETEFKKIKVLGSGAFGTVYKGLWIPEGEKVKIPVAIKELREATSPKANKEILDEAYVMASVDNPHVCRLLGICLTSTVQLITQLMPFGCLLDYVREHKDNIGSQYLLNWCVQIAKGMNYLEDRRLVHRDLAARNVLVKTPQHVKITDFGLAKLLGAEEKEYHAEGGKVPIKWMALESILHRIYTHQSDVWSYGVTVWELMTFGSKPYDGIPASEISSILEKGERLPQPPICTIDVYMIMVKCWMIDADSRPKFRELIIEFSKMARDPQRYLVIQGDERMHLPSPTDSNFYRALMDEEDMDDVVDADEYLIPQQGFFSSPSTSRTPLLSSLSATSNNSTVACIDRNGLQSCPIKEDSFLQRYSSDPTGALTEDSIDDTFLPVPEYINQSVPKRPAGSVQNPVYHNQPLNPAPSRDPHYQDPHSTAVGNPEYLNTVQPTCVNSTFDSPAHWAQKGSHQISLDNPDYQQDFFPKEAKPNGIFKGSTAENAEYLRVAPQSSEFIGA

Egr-1 = assay: Expression of ERK transcriptional target Egr-1; format: cell-based; details: 1 uM
[9] = 12.5 mg/kg orally once per day, to day 11
[10] = 50 mg/kg orally once per day, to day 11

SMILES: Nc1ncnc2c1c(-c1ccc(Oc3ccccc3)cc1)nn2C1CCCN(C(=O)/C=C/CN2CCOCC2)C1 (centres unmarked) [Compound 5, (E)-1-(3-(4-amino-3-(4-phenoxyphenyl)-1H-pyrazolo[3,4-d]pyrimidin-1-yl)piperidin-1-yl)-4-morpholinobut-2-en-1-one]
- Glutathione Conj Rate [1]: 0.004 nmol/min

SMILES: CN(C)C/C=C/C(=O)N1CCC[C@@H](n2nc(-c3ccc(Oc4ccccc4)cc3)c3c(N)ncnc32)C1 [Compound 2]
- kinase panel profile [8]: highly potent and selective inhibitor of Tec family kinases, including, Btk, as well as Src family kinases

SMILES: C=CC(=O)N[C@H]1CC[C@@H](n2nc(-c3ccc(Oc4ccccc4)cc3)c3c(N)ncnc32)CC1 [Compound 9]
- paw inflammation [3, 9]: reduced the increase in paw inflammation
- paw inflammation [3, 10]: reduced the increase in paw inflammation

SMILES: CN(C/C=C/C(=O)N1CCCC(n2nc(-c3ccc(Oc4ccccc4)cc3)c3c(N)ncnc32)C1)CCO (centres unmarked) [Compound 3]
- IC50 (BTK): 2.1 nM
- IC50 (EGFR): 74.5 nM

SMILES: CC#CC(=O)N[C@H]1CC[C@@H](n2nc(-c3ccc(Oc4ccccc4)cc3)c3c(N)ncnc32)CC1 [Compound 22, N-((1s,4s)-4-(4-amino-3-(4-phenoxyphenyl)-1H-pyrazolo[3,4-d]pyrimidin-1-yl)cyclohexyl)but-2-ynamide]
- Glutathione Conj Rate [1]: 0.014 nmol/min

SMILES: CN(C)C/C=C/C(=O)N1CCC[C@H]1Cn1nc(-c2ccc(Oc3ccccc3)cc2)c2c(N)ncnc21 [Compound 12, (E)-1-((S)-2-((4-amino-3-(4-phenoxyphenyl)-1H-pyrazolo[3,4-d]pyrimidin-1-yl)methyl)pyrolidin-1-yl)-4-(dimethylamino)but-2-en-1-one]
- Glutathione Conj Rate [1]: 0.004361 nmol/min
- in vivo half-life [5]: short half-life in vivo

SMILES: Nc1ncnc2c1c(-c1ccc(Oc3ccccc3)cc1)nn2C1CCCN(C(=O)/C=C/c2c[nH]cn2)C1 (centres unmarked) [Compound 4]
- IC50 (BTK): 22.2 nM
- IC50 ([6]; unstimulated DOHH2 cells (basal), read-out: pERK levels IC50): < 10 nM
- decrease of pERK levels ([7]; unstimulated Ramos cells (basal)): not
- time to reduced Egr-1 expression (Egr-1): ≤ 1 h
- maximal downregulation of Egr-1 expression (Egr-1; achieved by 4 hr): 10 fold

Second part, led by results:

- Glutathione Conj Rate [1]: 0.398 nmol/min
- GI50 ([2]; 5 of the seven lines with significantly higher basal pERK): < 1300 nM
- in vivo half-life [5]: short half-life in vivo
SMILES: C=CC(=O)N1CCC[C@@H](n2nc(-c3ccc(Oc4ccccc4)cc3)c3c(N)ncnc32)C1 [Compound 1]
- sensitivity of cell line to compound (Ramos cells): resistant
- sensitivity of cell lines to compound ([2]; the two cell lines with low pERK levels): resistant
- tumor growth (DOHH2 xenograft): inhibition of tumor growth; also recorded: inhibits tumor growth
- tumor growth (DLCL2 xenograft): inhibition of tumor growth; also recorded: inhibits tumor growth
- paw inflammation ([3]; 3.125 mg/kg orally once per day, to day 11): significantly reduced the increase in paw inflammation
- paw inflammation ([3]; 12.5 mg/kg intermittent dosing: days 1, 2, 3 or days 9, 10, 11 of an 11-day period): reduced the increase in paw inflammation
- paw inflammation [3, 9]: regressed inflammation
- paw inflammation [3, 10]: regressed inflammation
- proteinuria (urine protein levels) ([4]; 3.125 mg/kg orally once per day until 20 weeks of age): significantly reduced proteinuria
- proteinuria (urine protein levels) ([4]; 12.5 mg/kg orally once per day until 20 weeks of age): significantly reduced proteinuria
- proteinuria (urine protein levels) ([4]; 50 mg/kg orally once per day until 20 weeks of age): significantly reduced proteinuria
- amount of Evans Blue release (area of extravasation) (mast cell degranulation): significantly decrease the amount of Evans Blue release
- B cell activation (CD69) (normal human B cells): sufficient to inhibit B cell activation
- BCR-stimulus induced phosphorylation events ([6]; DOHH2, anti-IgM or anti-IgG cross-linking): inhibits most BCR-stimulus induced phosphorylation events
- BCR-stimulus induced phosphorylation events ([7]; Ramos, anti-IgM or anti-IgG cross-linking): inhibits most BCR-stimulus induced phosphorylation events
- lymphoma tumor cell growth (lymphoma cell lines): inhibits lymphoma tumor cell growth

- Glutathione Conj Rate [1]: 0.0243 nmol/min
SMILES: CC#CC(=O)N1CCC[C@@H](n2nc(-c3ccc(Oc4ccccc4)cc3)c3c(N)ncnc32)C1 [Compound 17, 1-((R)-3-(4-amino-3-(4-phenoxyphenyl)-1H-pyrazolo[3,4-d]pyrimidin-1-yl)piperidin-1-yl)but-2-yn-1-one]

- Glutathione Conj Rate [1]: 0.39 nmol/min
SMILES: C=CC(=O)N1CCC(n2nc(-c3ccc(Oc4ccccc4)cc3)c3c(N)ncnc32)CC1 [Compound 6]

- in vivo half-life [5]: significantly longer in vivo half-life
SMILES: CN(C)C/C=C/C(=O)N[C@H]1CC[C@@H](n2nc(-c3ccc(Oc4ccccc4)cc3)c3c(N)ncnc32)CC1 [Compound 8, (E)-N-((1s,4s)-4-(4-amino-3-(4-phenoxyphenyl)-1H-pyrazolo[3,4-d]pyrimidin-1-yl)cyclohexyl)-4-(dimethylamino)but-2-enamide]

- Glutathione Conj Rate [1]: 0.01 nmol/min
- in vivo half-life [5]: significantly longer in vivo half-life
SMILES: CN(C)C/C=C/C(=O)N1CCC(n2nc(-c3ccc(Oc4ccccc4)cc3)c3c(N)ncnc32)CC1 [Compound 7, (E)-1-(4-(4-amino-3-(4-phenoxyphenyl)-1H-pyrazolo[3,4-d]pyrimidin-1-yl)piperidin-1-yl)-4-(dimethylamino)but-2-en-1-one]
